Results: patent US9849190B2, “Peptide having cancer selective translocation function and use thereof” (SNU R&DB FOUNDATION, priority 2012, dated 2017)

Experiments:
[1] = test system: tumor cell line (MDA-MB-231, ATCC); test: Tumor cell penetration of fluorescent-labelled peptides (FACS, confocal microscopy); assay type: cell-based; settings: for fluorescence of the tumor cells measured by FACS: MDA-MB-231, 60 minutes after inoculation, various peptide concentrations, FIG. 1A; for ability to penetrate the tumor cell line, confocal laser scanning microscope: MDA-MB-231, various peptide concentrations, FIG. 1B
Procedure: In order to test the tumor cell-targeting and tumor cell-penetrating abilities of the VPTD peptide of SEQ ID NO: 1 and the HPTD peptide of […], prepared in Example 1, the termini of the prepared peptides were labeled with a fluorescent dye, and then each of the peptides was inoculated into a tumor cell line (MDA-MB-231, ATCC) at various concentrations.
60 minutes after the inoculation, the fluorescence of the cells was measured by FACS, and the results of the measurement are shown in FIGS. 1A and 1B.

VEGF = test: Slot-blot analysis of binding to VEGF; settings: FIG. 2
Source text: (§1) This is believed to be because the tumor-penetrating ability of the VPTD peptide of the present invention was maximized in the tumor tissue and the VPTD peptide did bind specifically to VEGF to inhibit vascular formation essential for the formation and progression of tumors. […] As a result, it could be seen that the VPTD peptide and the HPTD peptide did all bind to VEGF and heparin, which are overexpressed in tumor cells or tumor tissue.

[2] = Slot-blot analysis of binding to heparin; settings: FIG. 2
Source text: as §1

tumor induced in mice = test: Tumor inhibitory effect in tumor-induced mice; assay type: in vivo; settings: injected, volume measured every 3-4 days for 30 days, versus control, FIG. 3
Procedure: In order to test the effects of the VPTD peptide of SEQ ID NO: 1 (VSRRRRRRGGRRRR) and the HPTD peptide of SEQ ID NO: (CSSRKKNPNCRRH), prepared in Example 1, and the tumor-targeting and tumor-penetrating peptide-drug conjugates prepared in Example 2, a tumor was induced in mice, and when the tumor grew to a predetermined size, each of the peptides prepared in Example 1 and the tumor-targeting and tumor-penetrating peptide-drug conjugates prepared in Example 2 was injected into the mice. After injection, the volume of the tumor was measured at intervals of 3-4 days for 30 days. On day 30, the mice were sacrificed, and the tumor was extracted and photographed.
as §1

| Sequence | fluorescence of the tumor cells measured by FACS [1] | ability to penetrate the tumor cell line, confocal laser scanning microscope [1] | binding to VEGF (VEGF) | binding to heparin [2] | progression of the tumor (tumor volume) (tumor induced in mice) |
| --- | --- | --- | --- | --- | --- |
| CSSRKKNPNCRRH (HPTD) [HPTD peptide] | increased in a manner dependent on the concentration of the peptide | increased in a manner dependent on the concentration of the peptide | did all bind | did all bind | – |
| VSRRRRRRGGRRRR (VPTD) [VPTD peptide] | increased in a manner dependent on the concentration of the peptide | increased in a manner dependent on the concentration of the peptide | did all bind | did all bind | significantly inhibited |
